In ChEMBL document CHEMBL1133840, “Enols as potent antibacterial agents” (2001):
In brackets after ≈: the same amount, converted by molar mass.

Key:
Format in all cases: functional
Enterococcus faecalis = test: Evaluated for its antibacterial activity against Enterococcus faecalis UC 9217
Escherichia coli = test: Evaluated for its antibacterial activity against Escherichia coli UC 6674
Haemophilus influenzae = test: Evaluated for its antibacterial activity against Haemophilus influenzae 30063
Klebsiella pneumoniae = test: Evaluated for its antibacterial activity against Klebsiella pneumoniae UC 12081
Pseudomonas aeruginosa = test: Evaluated for its antibacterial activity against Pseudomonas aeruginosa UC 6676
[1] = test system: Staphylococcus epidermidis; test: Evaluated for its antibacterial activity against Staphylococcus epidermidis UC 12084
Staphylococcus aureus [2] = test: Evaluated for its antibacterial activity against Staphylococcus aureus UC 9218
Streptococcus pneumoniae = test: Evaluated for its antibacterial activity against Streptococcus pneumoniae UC 9912
Staphylococcus aureus [3] = test: Antibacterial activity against Staphylococcus aureus UC 9218 in the presence of 0% serum
Staphylococcus aureus [4] = test: Antibacterial activity against Staphylococcus aureus UC 9218 in the presence of 10% serum
Staphylococcus aureus [5] = test: Antibacterial activity against Staphylococcus aureus UC 9218 in the presence of 5% serum

| Compound | MIC (Enterococcus faecalis) | MIC (Escherichia coli) | MIC (Haemophilus influenzae) | MIC (Klebsiella pneumoniae) | MIC (Pseudomonas aeruginosa) | MIC [1] | MIC (Staphylococcus aureus [2]) | MIC (Streptococcus pneumoniae) | MIC (Staphylococcus aureus [3]) | MIC (Staphylococcus aureus [4]) | MIC (Staphylococcus aureus [5]) |
| --- | --- | --- | --- | --- | --- | --- | --- | --- | --- | --- | --- |
| CSCC(=O)N(CCc1cccc(C(F)(F)F)c1)c1cccc2ccccc12 | > 128 µg/mL | > 128 µg/mL | > 128 µg/mL | > 128 µg/mL | > 128 µg/mL | > 128 µg/mL | > 128 µg/mL | > 128 µg/mL |  |  |  |
| O=C(CC(=O)C(F)(F)F)N(CCc1cccc(C(F)(F)F)c1)c1cccc2ccccc12 | 4 µg/mL (≈ 8.82 µM) | > 128 µg/mL | 8 µg/mL (≈ 17.6 µM) | > 128 µg/mL | > 128 µg/mL | 2 µg/mL (≈ 4.41 µM) | 2 µg/mL (≈ 4.41 µM) | 8 µg/mL (≈ 17.6 µM) | 2 µg/mL | 64 µg/mL | 16 µg/mL |
| FC(F)(F)c1cccc(CCNc2ccc3ccccc3c2)c1 | > 1 µg/mL | > 128 µg/mL | 4 µg/mL (≈ 12.7 µM) | > 128 µg/mL | > 128 µg/mL | 2 µg/mL (≈ 6.34 µM) | 4 µg/mL (≈ 12.7 µM) | 2 µg/mL (≈ 6.34 µM) | 4 µg/mL | 64 µg/mL | 32 µg/mL |
| Clc1ccc(CCNc2cccc3ccccc23)c(Cl)c1 | 1 µg/mL (≈ 3.16 µM) | > 128 µg/mL | 1 µg/mL (≈ 3.16 µM) | > 128 µg/mL | > 128 µg/mL | 1 µg/mL (≈ 3.16 µM) | 2 µg/mL (≈ 6.32 µM) | 2 µg/mL (≈ 6.32 µM) | 2 µg/mL | 64 µg/mL | 16 µg/mL |
| COc1ccc(OC)c(CCNc2cccc3ccccc23)c1 | 16 µg/mL (≈ 52.1 µM) | > 128 µg/mL | 32 µg/mL (≈ 104 µM) | > 128 µg/mL | > 128 µg/mL | 16 µg/mL (≈ 52.1 µM) | 16 µg/mL (≈ 52.1 µM) | 16 µg/mL (≈ 52.1 µM) | 16 µg/mL | 128 µg/mL | 32 µg/mL |
| C[S+]([O-])CC(=O)N(CCc1cccc(C(F)(F)F)c1)c1cccc2ccccc12 (stereo not drawn) | > 128 µg/mL | > 128 µg/mL | > 128 µg/mL | > 128 µg/mL | > 128 µg/mL | 128 µg/mL (≈ 305 µM) | 128 µg/mL (≈ 305 µM) | 64 µg/mL (≈ 153 µM) |  |  |  |
| CCc1cccc2ccccc12 | 128 µg/mL (≈ 819 µM) | > 128 µg/mL | > 128 µg/mL | > 128 µg/mL | > 128 µg/mL | 128 µg/mL (≈ 819 µM) | 128 µg/mL (≈ 819 µM) | 32 µg/mL (≈ 205 µM) | 128 µg/mL | > 128 µg/mL | > 128 µg/mL |
| FC(F)(F)c1cccc(CNc2cccc3ccccc23)c1 | 2 µg/mL (≈ 6.64 µM) | > 128 µg/mL | 32 µg/mL (≈ 106 µM) | > 128 µg/mL | > 128 µg/mL | 4 µg/mL (≈ 13.3 µM) | 2 µg/mL (≈ 6.64 µM) | 8 µg/mL (≈ 26.6 µM) | 2 µg/mL |  |  |
| Cc1ccccc1NCCc1cccc(C(F)(F)F)c1 | 2 µg/mL (≈ 7.16 µM) | > 128 µg/mL | 4 µg/mL (≈ 14.3 µM) | > 128 µg/mL | > 128 µg/mL | 2 µg/mL (≈ 7.16 µM) | 4 µg/mL (≈ 14.3 µM) | 1 µg/mL (≈ 3.58 µM) | 4 µg/mL | 32 µg/mL | 16 µg/mL |
| O=C(CO)N(CCc1cccc(C(F)(F)F)c1)c1cccc2ccccc12 | > 128 µg/mL | > 128 µg/mL | > 128 µg/mL | > 128 µg/mL | > 128 µg/mL | > 128 µg/mL | 32 µg/mL (≈ 85.7 µM) | 32 µg/mL (≈ 85.7 µM) |  |  |  |
| c1ccc(-c2ccc(CCNc3cccc4ccccc34)cc2)cc1 | 2 µg/mL (≈ 6.18 µM) | > 128 µg/mL | 64 µg/mL (≈ 198 µM) | > 128 µg/mL | > 128 µg/mL | 8 µg/mL (≈ 24.7 µM) | 8 µg/mL (≈ 24.7 µM) | 16 µg/mL (≈ 49.5 µM) | 8 µg/mL | 128 µg/mL | 64 µg/mL |
| CC(=O)C(C#N)C(=O)N(CCc1cccc(C(F)(F)F)c1)c1cccc2ccccc12 (stereo not drawn) | 4 µg/mL (≈ 9.42 µM) | > 128 µg/mL | > 128 µg/mL | > 128 µg/mL | > 128 µg/mL | 4 µg/mL (≈ 9.42 µM) | 8 µg/mL (≈ 18.8 µM) | 2 µg/mL (≈ 4.71 µM) | 8 µg/mL | 128 µg/mL | 128 µg/mL |
| CC(=O)CC(=O)N(CCc1cccc(C(F)(F)F)c1)c1cccc2ccccc12 | > 128 µg/mL | > 128 µg/mL | > 128 µg/mL | > 128 µg/mL | > 128 µg/mL | > 128 µg/mL | > 128 µg/mL | 32 µg/mL (≈ 80.1 µM) |  |  |  |
| N#CCC(=O)N(CCc1cccc(C(F)(F)F)c1)c1cccc2ccccc12 | > 128 µg/mL | > 128 µg/mL | > 128 µg/mL | > 128 µg/mL | > 128 µg/mL | > 128 µg/mL | > 128 µg/mL | 16 µg/mL (≈ 41.8 µM) |  |  |  |
| CO/N=C(\C(=O)N[C@@H]1C(=O)N2C(C(=O)O)=C(COC(C)=O)CS[C@H]12)c1csc(N)n1 [CEFOTAXIME] |  | 0.06 µg/mL (≈ 0.132 µM) | 0.015 µg/mL (≈ 0.0329 µM) | 0.06 µg/mL (≈ 0.132 µM) | 16 µg/mL (≈ 35.1 µM) |  |  |  |  |  |  |
| CN[C@H](CC(C)C)C(=O)N[C@H]1C(=O)N[C@@H](CC(N)=O)C(=O)N[C@H]2C(=O)N[C@H]3C(=O)N[C@H](C(=O)N[C@H](C(=O)O)c4cc(O)cc(O)c4-c4cc3ccc4O)[C@H](O)c3ccc(c(Cl)c3)Oc3cc2cc(c3O[C@@H]2O[C@H](CO)[C@@H](O)[C@H](O)[C@H]2O[C@H]2C[C@](C)(N)[C@H](O)[C@H](C)O2)Oc2ccc(cc2Cl)[C@H]1O [VANCOMYCIN] | 1 µg/mL (≈ 0.69 µM) |  |  |  |  |  |  | 0.25 µg/mL (≈ 0.173 µM) |  |  |  |
